Legend:
Aged C57BL/6J mice [1] = assay: Hanging test; assay type: in vivo, C57BL/6JRj mice; settings: 1 mg/kg in the food, week 7, normalized to BW
Description: Mice were allowed to acclimate to the testing room for 30 min before the experiment. Each mouse was positioned on a wire grid, gripping it with all four limbs. The grid was then inverted, causing the mouse to hang, and the duration it could maintain this position was recorded. The maximum trial length was set at 2 min and 30 s (150 s). The latency to fall was measured five times for each mouse, with 10 min intervals between trials.

Aged C57BL/6J mice [2] = assay: Grip strength; assay type: in vivo, C57BL/6JRj mice; settings: 1 mg/kg in the food, week 8, 4 limbs, normalized to BW
Description: Grip strength was evaluated using a grip strength test. Each mouse’s grip strength was measured using a pulldown grid assembly connected to a grip strength meter (Columbus Instruments). The mouse was pulled along a straight line parallel to the grip to determine peak force. The experiment was conducted three times, and the highest recorded value was considered for the analysis.

Aged C57BL/6J mice [3] = assay: Metabolic cages (CLAMS): energy expenditure and activity; assay type: in vivo, C57BL/6JRj mice; settings: 1 mg/kg in the food, week 19, CLAMS
Description: Energy expenditure and activity during day and night were measured using the CLAMS monitoring system (Columbus instruments). Mice were housed in metabolic cages for 48 h.

[4] = tested on: GMC101 and CL2120 amyloid beta expressing animals; assay: Amyloid beta aggregation in C. elegans (Western blot); assay type: in vivo, Caenorhabditis elegans
Description: Figure 5 ALT-007 increases lifespan, improves healthspan and reduces protein aggregation in C. elegans. (A) Median and maximal lifespan of […]. elegans animals treated with ALT-007 or vehicle (5 μM). N = 2 biological replicates with at least 170 animals per group. (B) Paralysis and movement analysis of amyloid beta (Ab)-expressing animals treated with ALT-007 or vehicle (1 μM) at day 1 of adulthood. N = 2 biological replicates with at least 50 animals per group. (C) Amyloid aggregation upon ALT-007 treatment and DMSO as a control in GMC101 and CL2120 amyloid beta expressing animals and their respective controls. N = 3 biological replicates with at least 100 animals per group. (D) Quantification of amyloid beta (Ab) levels upon ALT-007 treatment. The log-rank (Mantel-Cox) test was used to evaluate differences between survival curves as indicated in Supplementary Table 1. two-tailed t-test was performed for two-group analysis and one-way analysis of variance (ANOVA) for three-group analysis. Sample preparation: Synchronized animal populations were collected and washed in M9 buffer. […] Protein samples were analyzed by Tricine-SDS-polyacrylamide gel electrophoresis (SDS-PAGE) and transferred to nitrocellulose membrane. Proteins were detected using the following antibodies under the manufacturer's conditions: antiβ-actin (Sigma) and antiAmyloid-beta, 1-16 (6E10) (BioLegend).

[5] = tested on: C2C12 myoblasts carrying the APPswe mutation and human myoblasts from aged donors and patients with IBM; parameters: method as in PMID 37196064; settings: cited from earlier work
[6] = parameters: method as in PMID 29669694; settings: cited from earlier work
[7] = Chronic (20 weeks) oral administration in aged mice: body weight, food intake, organ mass, plasma citrulline; assay type: in vivo, C57BL/6JRj mice; settings: 1 mg/kg in the food
Description: Figure 2 Chronic oral administration of ALT-007 enhances physical fitness in aged mice. (A) Schematic representation of the study time-line. Compounds were mixed in the food, ALT-007 at 1 mg/kg and DMSO at equivalent volume. At week 0: young mice were 2 months old, and the old mice were 18 months old. (B) Body weight curve over the course of the study (20 weeks). (C) Food intake curve throughout the study. (D–G) Organ mass at sacrifice (week 20), normalized to body weight. (H) Oral glucose tolerance test (oGTT) performed at week 17. (I) Best performance during hanging time normalized to BW at week 7. (J) Best performance during grip strength on the 4 limbs normalized to BW at week 8. (K) Rotarod’s best latency time at week 9. (L) VO2Max performed at week 11. (M) Uphill maximum running time performed at week 13. N = 9 per group. (N) Difference of CK level after—before 90 min downhill running performed at week 15. N = 6 in young, N = 8 in DMSO and N = 7 in ALT-007-treated groups. (O–Q) Measurement of kCAL/h at night (O) and at day (P) and movement recording in x, y, z (Q) during 24 h in CLAMS at week 19. N = 12 per group unless specified otherwise. Quantitative data are expressed as median with IQR. *P < 0.05, **P < 0.01, ***P < 0.001, ****P < 0.0001. ANOVA test was used for multiple comparison, and the Mann–Whitney U test when comparing 2 groups. All tests were 2 sided.
Young (2 month-old) and aged (18 month-old) male C57BL/6JRj mice were purchased from Janvier Laboratories. Housing conditions involved maintaining two to five animals per cage under a 12 h light/dark cycle, with continuous access to food and water. Animals were fed a standard chow diet (Safe 150) with the following composition: 56.9% nitrogen-free extract, of which 41.0% was starch and 3.4% was sugars, 18.0% crude protein, 4.8% crude fat, 4.2% crude ash, 4.1% crude fiber and 12.0% moisture. Young (2 month-old) and old (18 month-old) mice were monitored for 20 weeks. Mice were administered either DMSO as a control or ALT-007. ALT-007 was dissolved in DMSO or DMSO alone were mixed in the food (1 mg/kg for ALT-007 or equivalent volume of DMSO for controls). Body weight and food intake measurements were recorded weekly until sacrifice.
Prior to sacrifice, mice were fasted for 4 h in the morning. Animals were sacrificed between 1:30 and 4 p.m. Mice were anesthetized with isoflurane, followed by a complete blood draw from the vena cava and perfusion with cold phosphate-buffered saline. Immediately thereafter, various tissues including liver, kidney, spleen, heart, brain, gastrocnemius muscle and tibialis anterior muscle were harvested, weighted and promptly flash-frozen in liquid nitrogen.
1.1. Supplementary Figure 1
(A) Citrulline levels in the plasma of mice treated with ALT-007 at 1 mg/kg or vehicle […]

Question: Which maximum hanging time (Aged C57BL/6J mice [1]) does the source give for COc1cc(C(=O)N2CC[C@H](NC(=O)c3ccccc3OC(F)(F)F)c3c2cnn3C(C)C)cnc1OC [ALT-007] here?
Answer: increased compared to aged control mice

Question: What about the grip strength (Aged C57BL/6J mice [2]) of the same compound?
Answer: increased compared to aged control mice

Question: And the “energy expenditure (kCal/h) at night” value (Aged C57BL/6J mice [3])?
Answer: significant increase

Question: And the global physical activity (Aged C57BL/6J mice [3]; vs aged control)?
Answer: completely restored the decline in global physical activity

Question: And the amyloid beta aggregation ([4]; CL2120 strain (CL2122 as a control))?
Answer: reduce aggregation

Question: What about the amyloid beta aggregates ([4]; GMC101 worms) of the same compound?
Answer: reducing amyloid beta aggregates

Question: What about the protein aggregates [5] of the same compound?
Answer: potent effect in reducing protein aggregates

Question: What about the oral bioavailability [6] of the same compound?
Answer: orally bioavailable

Question: What about the “toxicity in long-term dosing” value ([6]; rodents) of the same compound?
Answer: non-toxic in long-term dosing in rodents

Question: What about the body weight ([7]; 20 weeks) of the same compound?
Answer: stable body weight

Question: What about the food intake ([7]; 20 weeks) of the same compound?
Answer: absence of changes in food intake

Question: What about the “gastrointestinal (GI) toxicity by plasma citrulline levels” value ([7]; 20 weeks, vs untreated mice) of the same compound?
Answer: no gastrointestinal (GI) toxicity

Question: And the “tissue weights relative to control” value ([7]; at sacrifice week 20, normalized to body weight)?
Answer: absence of changes

Source: publication PMC11729425 (ACS Pharmacology & Translational Science, 2024)
